From patent US8987514B2, “Compositions and methods for labeling and imaging phospholipids” (President and Fellows of Harvard College, priority 2009, dated 2015)

Tested on: NIH-3T3 cells
Conditions: for incorporation of azide choline analogs into phospholipids: FIG. 8 legend
Text: After incorporation into phospholipids, azidophosphatidylcholine molecules can be detected by specifically reacting them with a fluorescent conjugate of dibenzo-cyclooctyne (DBCO), in a strain-promoted azide-alkyne cycloaddition reaction, also known as the copper-free “click” reaction (FIG. 9). In addition, azidophosphatidylcholine molecules can be reacted with a biotin-phosphine, followed by the detection of the biotinylated phospholipid species using labeled streptavidin (FIG. 10).
Cultured NIH-3T3 cells on coverslips were incubated overnight in complete media (DMEM with 10% bovine calf serum) in the absence or presence of 1 mM azidopropyl-choline. The cells were then washed with PBS, fixed with 3.7% formaldehyde in PBS, washed with TBS and then reacted with 40 microM biotin-phosphine in TBS supplemented with 1 mM DTT, for 3 hours at room temperature. The cells were then washed successively with TBS, 0.5 M NaCl, and TBS. Non-specific binding sites were blocked by incubation with blocking buffer (4% bovine serum albumin in TBS), followed by staining with Alexa488-streptavidin (1 microg/mL in blocking buffer). The cells were then washed with TBS (at least 4 washes, at 5 minutes each), mounted and imaged by fluorescence microscopy.
Cultured NIH-3T3 cells were transiently transfected with the plasmid pDsRed-Mito (Clontech), which labels mitochondria red. The cells were then incubated overnight in complete media, in the absence or presence of 500 microM azidoethyl-choline. The cells were washed with PBS, fixed with 3.7% formaldehyde in PBS, washed with TBS and then reacted with 20 microM Alexa488-DBCO in TBS, for 30 minutes at room temperature. Unreacted Alexa488-DBCO was removed by washing successively with TBS, 0.5 M NaCl, and TBS. The cells were then imaged by fluorescence microscopy.

Substance | incorporation of azide choline analogs into phospholipids | subcellular distribution of azidoethylcholine-labeled phospholipids (NIH-3T3 cells, 500 microM overnight, DsRed-Mito marker, Alexa488-DBCO, FIG. 12)
azidoethyl-choline | efficiently incorporated into phospholipids in vivo | localize to several populations of cellular membranes, including the mitochondrial membrane
azidopropyl-choline | efficiently incorporated into phospholipids in vivo | 
